ChEMBL document CHEMBL1201862, “PubChem BioAssay data set” (2004)
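Each compound was tested at five concentrations against cells in 96-well plates for 48 hours. At the GI50, growth is halved.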 Activity calls are given as the source filed them. Rule as the data show it: active = GI50 up to about 1.1 µM and inactive = higher.

How the values were obtained:
Test in all cases: NCI anticancer screen, dose series, 48 h
TK-10 = system: TK-10
DLD-1 = system: DLD-1
NCI-H460 = system: NCI-H460
SN12C = system: SN12C
NCI-H226 = system: NCI-H226
HOP-62 = system: HOP-62
HT-29 = system: HT-29
M19-MEL = system: M19-MEL
LXFL 529 = system: LXFL 529
M14 = system: M14
SNB-19 = system: SNB-19
SK-MEL-28 = system: SK-MEL-28
NCI-H23 = system: NCI-H23
SW-620 = system: SW-620
DMS-114 = system: DMS-114
DMS-273 = system: DMS-273
ACHN = system: ACHN
HOP-18 = system: HOP-18
SF-295 = system: SF-295
UACC-257 = system: UACC-257
RXF 393 = system: RXF 393
A549 = system: A549
SNB-75 = system: SNB-75
NCI-H522 = system: NCI-H522
UO-31 = system: UO-31
OVCAR-8 = system: OVCAR-8
U-251 = system: U-251
SNB-78 = system: SNB-78
CAKI-1 = system: CAKI-1
HCC 2998 = system: HCC 2998
OVCAR-5 = system: OVCAR-5
SF-268 = system: SF-268
Malme-3M = system: Malme-3M
LOX IMVI = system: LOX IMVI
SK-MEL-2 = system: SK-MEL-2
HL-60 = system: HL-60
SF-539 = system: SF-539
KM-20L2 = system: KM-20L2
XF498 = system: XF498
SR = system: SR
EKVX = system: EKVX
KM12 = system: KM12
HOP-92 = system: HOP-92

CCC(C)CN1C(=O)NC(Cc2ccccc2)C1=O (stereo not drawn)
GI50 (TK-10): > 100 µM (inactive)
GI50 (DLD-1): > 100 µM (inactive)
GI50 (NCI-H460): > 100 µM (inactive)
GI50 (SN12C): > 100 µM (inactive)
GI50 (NCI-H226): > 100 µM (inactive)
GI50 (HOP-62): > 100 µM (inactive)
GI50 (HT-29): > 100 µM (inactive)
GI50 (M19-MEL): > 100 µM (inactive)
GI50 (LXFL 529): > 100 µM (inactive)
GI50 (M14): > 100 µM (inactive)
GI50 (SNB-19): > 100 µM (inactive)
GI50 (SK-MEL-28): > 100 µM (inactive)
GI50 (NCI-H23): > 100 µM (inactive)
GI50 (SW-620): > 100 µM (inactive)
GI50 (DMS-114): > 100 µM (inactive)
GI50 (DMS-273): > 100 µM (inactive)
GI50 (ACHN): > 100 µM (inactive)
GI50 (HOP-18): 0.119 µM (active)
GI50 (SF-295): > 100 µM (inactive)
GI50 (UACC-257): 22.1 µM (inactive)
GI50 (RXF 393): > 100 µM (inactive)
GI50 (A549): > 100 µM (inactive)
GI50 (SNB-75): > 100 µM (inactive)
GI50 (NCI-H522): > 100 µM (inactive)
GI50 (UO-31): > 100 µM (inactive)
GI50 (OVCAR-8): > 100 µM (inactive)
GI50 (U-251): > 100 µM (inactive)
GI50 (SNB-78): > 100 µM (inactive)
GI50 (CAKI-1): > 100 µM (inactive)
GI50 (HCC 2998): > 100 µM (inactive)
GI50 (OVCAR-5): > 100 µM (inactive)
GI50 (SF-268): > 100 µM (inactive)
GI50 (Malme-3M): > 100 µM (inactive)
GI50 (LOX IMVI): > 100 µM (inactive)
GI50 (SK-MEL-2): > 100 µM (inactive)
GI50 (HL-60): > 10 µM (inactive)
GI50 (SF-539): > 100 µM (inactive)
GI50 (KM-20L2): > 100 µM (inactive)
GI50 (XF498): > 100 µM (inactive)
GI50 (SR): > 100 µM (inactive)
GI50 (EKVX): > 100 µM (inactive)
GI50 (KM12): > 100 µM (inactive)
GI50 (HOP-92): 19.4 µM (inactive)
